In patent publication USRE38825E1, “Glyphosate tolerant plants” (Monsanto Technology LLC, priority 1990, dated 2005):

Target: glyphosate oxidoreductase from LBAA, wild type (w1w2w3: SER84, LYS153, HIS334), SEQ ID NO:5 (Ochrobactrum sp. G-1, UniProt D2KI28, S2A)
Test: Kinetic analysis of glyphosate oxidoreductase, wild type (crude E. coli lysate, glyoxylate-DNPH assay)
Format: biochemical, bacterial isolate LBAA (Pseudomonas strain LBAA)
Excerpt: An alternate method for the assay of glyphosate oxidoreductase involves reaction of the sample with 2,4-dinitrophenylhydrazine and determination of the amount of the glyoxylate-2,4-dinitrophenylhydrazone by HPLC analysis as described in detail in a later section.
Prior examples of engineered herbicide resistance by enzymatic inactivation of the herbicide have utilized enzymes with an ability to bind and metabilize the herbicides much more efficiently than glyphosate oxidoreductase metabolizes glyphosate.
The mutagenesis procedure used was that of Mn++-poisoned PCR and the template was a linearized glyphosate oxidoreductase gene plasmid containing the synthetic glyphosate oxidoreductase gene (SEQ ID NO:8). The oligonucleotide primers used were homologous to regions in the vector and flanking the glyphosate oxidoreductase gene. The PCR conditions employed were as follows: 1 minute at 94° C., 2 minutes at 55° C., and 3 minutes at 72° C. and with 35 cycles. A 5:1 ratio of dCTP+dGTP+TTP to dATP was used. The reactions contained MnCl2 at 125, 250, 375, or 500 μM. After the reaction, the amplified product was recloned into a vector containing a weak E. coli promoter. This vector was a pBR327 derivative containing the araBAD promoter and suitable cloning sites. One hundred colonies from this cloning step were then screened in E. coli GB993 for improved glyphosate tolerance and utilization phenotypes in media composed of MOPS minimal medium with glyphosate and Pi or with glyphosate alone, respectively. Growth rates were determined by measuring A550 over a 96 hour period. […] The glyphosate oxidoreductase gene was recloned into the expression vector portion and this phenotype verified. All kinetic analysis was performed on crude E. coli lysates. Putative glyphosate oxidoreductase variant proteins were overexpressed after subcloning the NcoI/HindIII variant glyphosate oxidoreductase gene into PrecA-gene10L expression vector. For overexpression in PrecA-gene10L constructs, GB993 cells containing the vector were induced at a Klett=110-120 in M9 minimal medium with 50 μg/ml nalidixic acid and allowed to grow for 2.5 hours at 37° C. with vigorous shaking. Cells were harvested by centrifugation at 4000 g, 5 minutes at 4° C., and resuspend in 100 mM Tris-HCl, pH 7.1, 1 mM EDTA, 35 mM KCl, 20% glycerol, and 1 mM benzamidine at 3 ml/g cell pellet. Lysates were prepared by breaking the cells in a French press, twice, at 1000 psi. […] Protein concentrations were determined using the Bio-Rad protein dye-binding assay. […] Ten minutes was determined to be the optimal time for the enzyme assay using 10 μg lysate. […] Enzyme activity was determined from the amount of glyoxylate-DNPH adduct formed by measuring A520 against a standard of glyoxylate. […]

## O=C(O)CNCP(=O)(O)O [glyphosate, N-phosphonomethyl-glycine]
Domain switch experiment, wt (w1w2w3), substrate glyphosate
  VmKm: 0.022
read-out: K for glyphosate, general statement on the glyphosate oxidoreductase enzyme
  Km: 20 to 30 mM
Wild type
  VmKm (Glyp): .03
Wild type, pH 7.4, 30° C., enzyme amount by immunoblot
  app Vm (Glyp): 0.8 U/mg
